Reference: patent US12357631B2 (priority 2018, dated 2025)

Experiments:
Experiment in all cases: biochemical
Type in all cases: binding
PB2 CDlp7007 H3N2 = PB2 CDlp7007 H3N2 (Influenza A virus, UniProt P31345)
PB2 CDlp7028 H3N2 = PB2 CDlp7028 H3N2 (Influenza A virus, UniProt P31345)
PB2 = PB2 (Influenza A virus, UniProt P03428)
PB2 CDlp7026 H1N1 = PB2 CDlp7026 H1N1 (Influenza A virus, UniProt P03428)
Sequence of PB2 CDlp7026 H1N1 (P03428 whole entry, looked up): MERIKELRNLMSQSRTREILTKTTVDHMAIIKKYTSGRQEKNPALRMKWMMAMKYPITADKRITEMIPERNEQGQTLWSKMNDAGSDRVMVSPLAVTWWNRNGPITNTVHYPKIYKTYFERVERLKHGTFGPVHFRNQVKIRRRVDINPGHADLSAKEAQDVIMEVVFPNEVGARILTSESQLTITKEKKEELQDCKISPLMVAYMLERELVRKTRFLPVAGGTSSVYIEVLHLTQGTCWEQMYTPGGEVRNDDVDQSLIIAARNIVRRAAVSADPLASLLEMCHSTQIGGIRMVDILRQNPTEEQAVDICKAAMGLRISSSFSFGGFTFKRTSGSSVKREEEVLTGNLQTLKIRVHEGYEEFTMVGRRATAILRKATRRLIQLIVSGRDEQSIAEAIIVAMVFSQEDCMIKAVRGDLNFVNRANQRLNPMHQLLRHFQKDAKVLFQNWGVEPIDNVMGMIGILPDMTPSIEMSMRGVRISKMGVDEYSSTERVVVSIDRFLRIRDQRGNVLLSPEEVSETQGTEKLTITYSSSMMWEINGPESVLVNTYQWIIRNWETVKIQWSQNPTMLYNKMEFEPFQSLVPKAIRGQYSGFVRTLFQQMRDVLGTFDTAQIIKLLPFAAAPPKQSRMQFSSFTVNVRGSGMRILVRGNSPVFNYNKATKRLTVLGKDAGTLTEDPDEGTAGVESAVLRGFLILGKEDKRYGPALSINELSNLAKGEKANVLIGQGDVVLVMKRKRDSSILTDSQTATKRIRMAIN

Sequence of PB2 CDlp7007 H3N2 (P31345 whole entry, looked up): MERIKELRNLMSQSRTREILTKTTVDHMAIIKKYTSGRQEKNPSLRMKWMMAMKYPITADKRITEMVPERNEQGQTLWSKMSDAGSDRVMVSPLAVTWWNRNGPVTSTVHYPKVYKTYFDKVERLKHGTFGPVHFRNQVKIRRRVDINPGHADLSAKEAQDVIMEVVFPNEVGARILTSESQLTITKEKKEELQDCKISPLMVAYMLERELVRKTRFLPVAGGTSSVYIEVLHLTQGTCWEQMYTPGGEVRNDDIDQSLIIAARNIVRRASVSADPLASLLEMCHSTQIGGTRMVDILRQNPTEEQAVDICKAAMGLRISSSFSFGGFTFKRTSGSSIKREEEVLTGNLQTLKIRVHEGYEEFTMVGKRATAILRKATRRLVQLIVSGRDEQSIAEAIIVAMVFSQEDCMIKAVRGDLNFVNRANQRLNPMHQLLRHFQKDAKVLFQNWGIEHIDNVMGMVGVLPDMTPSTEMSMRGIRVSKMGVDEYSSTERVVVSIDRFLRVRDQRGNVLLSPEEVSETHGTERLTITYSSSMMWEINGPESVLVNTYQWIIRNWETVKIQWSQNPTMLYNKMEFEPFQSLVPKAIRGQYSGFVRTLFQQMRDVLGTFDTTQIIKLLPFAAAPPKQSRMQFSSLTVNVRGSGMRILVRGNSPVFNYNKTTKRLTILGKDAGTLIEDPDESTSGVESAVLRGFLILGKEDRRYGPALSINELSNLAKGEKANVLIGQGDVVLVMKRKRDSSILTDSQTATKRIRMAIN
Sequence of PB2 CDlp7028 H3N2 (P31345 whole entry, looked up): as above
Sequence of PB2 (P03428 whole entry, looked up): as the sequence (P03428 whole entry, looked up) above

Row | Compound | EC50 (PB2) [µM] | also measured
1 | CCOCCOCCCCCN(C)C(=O)N[C@@H]1CCC[C@H](Nc2nc(-c3c[nH]c4ncc(F)cc34)ncc2F)C1 [Compound A181] |  | IC50 (PB2 CDlp7007 H3N2): 50 to 100 µM; IC50 (PB2 CDlp7028 H3N2): 25 to 50 µM
2 | CCOCCOCCOCCN(C)C(=O)N[C@@H]1CCC[C@H](Nc2nc(-c3c[nH]c4ncc(F)cc34)ncc2F)C1 [Compound A165] |  | IC50 (PB2 CDlp7007 H3N2): 50 to 100 µM; IC50 (PB2 CDlp7028 H3N2): 50 to 100 µM
3 | CCOCCOCCOCCNC(=O)N[C@@H]1CCC[C@H](Nc2nc(-c3c[nH]c4ncc(F)cc34)ncc2F)C1 [Compound A164] | 25 to 50 | IC50 (PB2 CDlp7007 H3N2): 25 to 50 µM
4 | CCOCCOCCOCC(=O)N[C@@H]1CCC[C@H](Nc2nc(-c3c[nH]c4ncc(F)cc34)ncc2F)C1 [Compound A263] | 25 to 50 | IC50 (PB2 CDlp7007 H3N2): 25 to 50 µM
5 | CCOCCOCCCCC(=O)N[C@@H]1CCC[C@H](Nc2nc(-c3c[nH]c4ncc(F)cc34)ncc2F)C1 [Compound A270] |  | IC50 (PB2 CDlp7007 H3N2): > 100 µM; IC50 (PB2 CDlp7028 H3N2): > 100 µM
6 | CCNC(=O)OCc1ccnc(C(=O)N[C@@H]2CCC[C@H](Nc3nc(-c4c[nH]c5ncc(F)cc45)ncc3F)C2)c1 [Compound A70] | < 5 | IC50 (PB2 CDlp7007 H3N2): 5 to 25 µM; IC50 (PB2 CDlp7026 H1N1): 5 to 25 µM; IC50 (PB2 CDlp7028 H3N2): < 5 µM
7 | CCOCCOCCOCC(=O)N1CCC[C@H](Nc2nc(-c3c[nH]c4ncc(F)cc34)ncc2F)C1 [Compound C2] |  | IC50 (PB2 CDlp7007 H3N2): 5 to 25 µM; IC50 (PB2 CDlp7028 H3N2): 5 to 25 µM
8 | COCCOCc1ccnc(C(=O)N[C@@H]2CCC[C@H](Nc3nc(-c4c[nH]c5ncc(F)cc45)ncc3F)C2)c1 [Compound A45] | 25 to 50 | 
9 | CCOc1ccc(CNC(=O)OC(C)c2ccnc(C(=O)N[C@H]3CCC[C@@H](Nc4nc(-c5c[nH]c6ncc(F)cc56)ncc4F)C3)c2)cc1 (some centres unmarked) [Compound A139] | > 100 | 
10 | CCOCCOCCOCCNC(=O)N(CCCc1ccccc1)[C@@H]1CCC[C@H](Nc2nc(-c3c[nH]c4ncc(F)cc34)ncc2F)C1 [Compound B3] | 50 to 100 | 
11 | CCOCCOCCCc1cc(C(=O)N[C@@H]2CCC[C@H](Nc3nc(-c4c[nH]c5ncc(F)cc45)ncc3F)C2)ncn1 [Compound A33] | > 100 | 
12 | O=C(O)CCN1CCC[C@H](Nc2nc(-c3c[nH]c4ncc(F)cc34)ncc2F)C1 [Compound C13] | 5 to 25 | 
13 | CCOCCOCc1cccc(-c2ccnc(C(=O)N[C@H]3CCC[C@@H](Nc4nc(-c5c[nH]c6ncc(F)cc56)ncc4F)C3)c2)c1 [Compound A90] | 50 to 100 | 
14 | CCOCCOc1cccc(CCN(C)C(=O)N[C@@H]2CCC[C@H](Nc3nc(-c4c[nH]c5ncc(F)cc45)ncc3F)C2)c1 [Compound A186] | > 100 | 
15 | CCOCCOCc1cccc(CN(C)C(=O)N[C@@H]2CCC[C@H](Nc3nc(-c4c[nH]c5ncc(F)cc45)ncc3F)C2)c1 [Compound A204] | > 100 | 
16 | CCOCCOCCCCCN(C(=O)N[C@H]1CCC[C@@H](Nc2nc(-c3c[nH]c4ncc(F)cc34)ncc2F)C1)C(C)C [Compound A214] | > 100 | 

Row | Compound | EC50 (PB2) [µM] | also measured
17 | CCCCCCCOCCCN(C)C(=O)N[C@H]1CCC[C@@H](Nc2nc(-c3c[nH]c4ncc(F)cc34)ncc2F)C1 [Compound A206] | > 100 | 
18 | COCCOCCCCCCN(C)C(=O)N[C@H]1CCC[C@@H](Nc2nc(-c3c[nH]c4ncc(F)cc34)ncc2F)C1 [Compound A244] | > 100 | 
19 | CCCCOCCCCCCN(C)C(=O)N[C@@H]1CCC[C@H](Nc2nc(-c3c[nH]c4ncc(F)cc34)ncc2F)C1 [Compound A200] | > 100 | 
20 | CCCCCOCCOCCNC(=O)N[C@@H]1CCC[C@H](Nc2nc(-c3c[nH]c4ncc(F)cc34)ncc2F)C1 [Compound A183] | 50 to 100 | 
21 | CCOCc1ccc(C(=O)N[C@@H]2CCC[C@H](Nc3nc(-c4c[nH]c5ncc(F)cc45)ncc3F)C2)nc1 [Compound A41] | 50 to 100 | 
22 | CCOCCCCCOCC(=O)N[C@@H]1CCC[C@H](Nc2nc(-c3c[nH]c4ncc(F)cc34)ncc2F)C1 [Compound A274] | > 100 | 
23 | CCOCCOCCCCCN(Cc1ccccn1)C(=O)N[C@@H]1CCC[C@H](Nc2nc(-c3c[nH]c4ncc(F)cc34)ncc2F)C1 [Compound A207] | 50 to 100 | 
24 | O=C(COCCOCCOCCO)N1CCC[C@H](Nc2nc(-c3c[nH]c4ncc(F)cc34)ncc2F)C1 [Compound C1] |  | IC50 (PB2 CDlp7007 H3N2): 5 to 25 µM; IC50 (PB2 CDlp7028 H3N2): 5 to 25 µM
25 | CCOc1ccc(-c2ccnc(C(=O)N[C@@H]3CCC[C@H](Nc4nc(-c5c[nH]c6ncc(F)cc56)ncc4F)C3)c2)cc1 [Compound A62] | 5 to 25 | 
26 | O=C(NCc1cccc(F)c1)OCc1ccnc(C(=O)N[C@H]2CCC[C@@H](Nc3nc(-c4c[nH]c5ncc(F)cc45)ncc3F)C2)c1 [Compound A125] | > 100 | 
27 | O=C(N[C@H]1CCC[C@@H](Nc2nc(-c3c[nH]c4ncc(F)cc34)ncc2F)C1)N1CCCc2ccccc21 [Compound A1] | > 100 | 
28 | COc1ccc(CNC(=O)OCc2ccnc(C(=O)N[C@H]3CCC[C@@H](Nc4nc(-c5c[nH]c6ncc(F)cc56)ncc4F)C3)c2)cc1 [Compound A73] | > 100 | 
29 | O=C(N[C@@H]1CCC[C@H](Nc2nc(-c3c[nH]c4ncc(F)cc34)ncc2F)C1)c1cc(CCCO)ccn1 [Compound A39] | < 5 | 
30 | O=C(N[C@H]1CCC[C@@H](Nc2nc(-c3c[nH]c4ncc(F)cc34)ncc2F)C1)c1cc2ccccc2cn1 [Compound A46] | > 100 | 
31 | CCCOCCCCCc1ccnc(C(=O)N[C@@H]2CCC[C@H](Nc3nc(-c4c[nH]c5ncc(F)cc45)ncc3F)C2)c1 [Compound A28] | > 100 | 
